In patent US20240092784A1, “CONDENSED HETEROCYCLIC COMPOUND” (NISSAN CHEMICAL CORPORATION, priority 2020, published 2024):
Where a name gives a salt, the structure may show the parent alone.

target: human SPR (Homo sapiens (Human), UniProt P35270); test: Evaluation Example 2: Measurement of human SPR inhibitory activity (seven concentrations, sepiapterin absorbance at 420 nm); assay type: biochemical; details: Evaluation Example 2, seven concentrations 0.14 nM to 100 nM, 240 minutes at room temperature, read-out: IC50
How it was run: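 His-tagged full-length human SPR (1-261) was expressed in E. coli and the tag removed. Enzyme at 150 ng/mL in 100 mM Tris-HCl pH 7.5/0.01% BSA was mixed with compound (0.14–100 nM, seven points), 120 μM sepiapterin and 160 μM NADPH, both as added-solution concentrations. After 240 min at room temperature, remaining sepiapterin was read at 420 nm to give percent inhibition.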

human SPR, sequence (P35270 whole entry): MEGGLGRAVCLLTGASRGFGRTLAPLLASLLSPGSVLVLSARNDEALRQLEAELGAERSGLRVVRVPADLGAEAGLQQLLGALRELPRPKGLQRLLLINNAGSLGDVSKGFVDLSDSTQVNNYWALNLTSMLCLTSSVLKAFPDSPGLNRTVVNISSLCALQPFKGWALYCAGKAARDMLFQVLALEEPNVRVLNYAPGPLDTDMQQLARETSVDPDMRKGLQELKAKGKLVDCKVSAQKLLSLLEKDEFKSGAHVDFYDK

SMILES	IC50 [nM]
CC(C)(C)Cn1c(=O)c(C(=O)NC2CC2)c(O)n2nc(-c3cccnc3C(F)F)cc12 [Synthesis Example 297, N-Cyclopropyl-2-(2-(difluoromethyl)pyridin-3-yl)-7-hydroxy-4-neopentyl-5-oxo-4,5-dihydropyrazolo[1,5-a]pyrimidine-6-carboxamide]	3.32
CC(C)(C)Cn1c(=O)c(C(=O)NC2CC2)c(O)n2nc(-c3n[nH]cc3C(F)(F)F)cc12 [Synthesis Example 298, N-Cyclopropyl-7-hydroxy-4-neopentyl-5-oxo-2-(4-(trifluoromethyl)-1H-pyrazol-3-yl)-4,5-dihydropyrazolo[1,5-a]pyrimidine-6-carboxamide]	3.11
CC(C)(C)Cn1c(=O)c(C(=O)NC2CC2)c(O)n2nc(-c3ccccn3)cc12 [Synthesis Example 299, N-Cyclopropyl-7-hydroxy-4-neopentyl-5-oxo-2-(pyridin-2-yl)-4,5-dihydropyrazolo[1,5-a]pyrimidine-6-carboxamide]	6.43
COc1cnc(-c2cc3n(CC(C)(C)C)c(=O)c(C(=O)NC4CC4)c(O)n3n2)cn1 [Synthesis Example 300, N-Cyclopropyl-7-hydroxy-2-(5-methoxypyrazin-2-yl)-4-neopentyl-5-oxo-4,5-dihydropyrazolo[1,5-a]pyrimidine-6-carboxamide]	9.44
CC(C)(C)Cn1c(=O)c(C(=O)NC2CC2)c(O)n2nc(-c3cn[nH]c3C#N)cc12 [Synthesis Example 301]	1.22
CC(C)(C)Cn1c(=O)c(C(=O)NC2CC2)c(O)n2nc(-c3cnccn3)cc12 [Synthesis Example 302, N-Cyclopropyl-7-hydroxy-4-neopentyl-5-oxo-2-(pyrazin-2-yl)-4,5-dihydropyrazolo[1,5-a]pyrimidine-6-carboxamide]	2.69
Cc1cnc(-c2cc3n(CC(C)(C)C)c(=O)c(C(=O)NC4CC4)c(O)n3n2)cn1 [Synthesis Example 303, N-Cyclopropyl-7-hydroxy-2-(5-methylpyrazin-2-yl)-4-neopentyl-5-oxo-4,5-dihydropyrazolo[1,5-a]pyrimidine-6-carboxamide]	2.58
CC(C)(C)Cn1c(=O)c(C(=O)NC2CC2)c(O)n2nc(-c3cnc(F)cn3)cc12 [Synthesis Example 304, N-Cyclopropyl-2-(5-fluoropyrazin-2-yl)-7-hydroxy-4-neopentyl-5-oxo-4,5-dihydropyrazolo[1,5-a]pyrimidine-6-carboxamide]	3
CC(C)(C)Cn1c(=O)c(C(=O)NC2CC2)c(O)n2nc(-c3[nH]ncc3Cl)cc12 [Synthesis Example 305, 2-(4-Chloro-1H-pyrazol-5-yl)-N-cyclopropyl-7-hydroxy-4-neopentyl-5-oxo-4,5-dihydropyrazolo[1,5-a]pyrimidine-6-carboxamide]	2.24
CC(C)(C)Cn1c(=O)c(C(=O)NC2CC2)c(O)n2nc(-c3n[nH]c4ncccc34)cc12 [Synthesis Example 306]	9.43
CC(C)(C)Cn1c(=O)c(C(=O)NC2CC2)c(O)n2nc(-c3n[nH]c4ccncc34)cc12 [Synthesis Example 307, N-Cyclopropyl-7-hydroxy-4-neopentyl-5-oxo-2-(1H-pyrazolo[4,3-c]pyridin-3-yl 4,5-dihydropyrazolo[1,5-a]pyrimidine-6-carboxamide hydrochloride]	3.03
CNc1ccncc1-c1cc2n(CC(C)(C)C)c(=O)c(C(=O)NC3CC3)c(O)n2n1 [Synthesis Example 308, N-Cyclopropyl-7-hydroxy-2-(4-(methylamino)pyridin-3-yl)-4-neopentyl-5-oxo-4,5-dihydropyrazolo[1,5-a]pyrimidine-6-carboxamide]	3.6
CNc1ncccc1-c1cc2n(CC(C)(C)C)c(=O)c(C(=O)NC3CC3)c(O)n2n1 [Synthesis Example 309, N-Cyclopropyl-7-hydroxy-2-(2-(methylamino)pyridin-3-yl)-4-neopentyl-5-oxo-4,5-dihydropyrazolo[1,5-a]pyrimidine-6-carboxamide]	22.9
Cn1cc(-c2cc3n(CC(C)(C)C)c(=O)c(C(=O)NC4CC4)c(O)n3n2)c(C(N)=O)n1 [Synthesis Example 310, 2-(3-Carbamoyl-1-methyl-1H-pyrazol-4-yl)-N-cyclopropyl-7-hydroxy-4-neopentyl-5-oxo-4,5-dihydropyrazolo[1,5-a]pyrimidine-6-carboxamide]	2.47
CC(C)(C)Cn1c(=O)c(C(=O)NC2CC2)c(O)n2nc(-c3[nH]ncc3C(=O)N3CCOCC3)cc12 [Synthesis Example 311, N-Cyclopropyl-7-hydroxy-2-(4-(morpholine-4-carbonyl)-1H-pyrazol-5-yl)-4-neopentyl-5-oxo-4,5-dihydropyrazolo[1,5-a]pyrimidine-6-carboxamide]	1.21
CC(C)(C)Cn1c(=O)c(C(=O)NC2CC2)c(O)n2nc(-c3c[nH]nc3C(N)=O)cc12 [Synthesis Example 312, 2-(3-Carbamoyl-1H-pyrazol-4-yl)-N-cyclopropyl-7-hydroxy-4-neopentyl-5-oxo-4,5-dihydropyrazolo[1,5-a]pyrimidine-6-carboxamide]	1.3
CC(C)(C)Cn1c(=O)c(C(=O)NC2CC2)c(O)n2nc(-c3[nH]ncc3C(=O)N3CCC(F)(F)CC3)cc12 [Synthesis Example 313, N-Cyclopropyl-2-(4-(4,4-difluoropiperidine-1-carbonyl)-1H-pyrazol-5-yl)-7-hydroxy-4-neopentyl-5-oxo-4,5-dihydropyrazolo[1,5-a]pyrimidine-6-carboxamide hydrochloride]	1.15
CN(C)C(=O)c1cn[nH]c1-c1cc2n(CC(C)(C)C)c(=O)c(C(=O)NC3CC3)c(O)n2n1 [Synthesis Example 314, N-Cyclopropyl-2-(4-(dimethylcarbamoyl)-1H-pyrazol-5-yl)-7-hydroxy-4-neopentyl-5-oxo-4,5-dihydropyrazolo[1,5-a]pyrimidine-6-carboxamide hydrochloride]	0.93
CC(C)(C)Cn1c(=O)c(C(=O)NC2CC2)c(O)n2nc(-c3[nH]ncc3C(=O)NCC3CCOCC3)cc12 [Synthesis Example 315, N-Cyclopropyl-7-hydroxy-4-neopentyl-5-oxo-2-(4-(((tetrahydro-2H-pyran-4-yl)methyl)carbamoyl)-1H-pyrazol-5-yl)-4,5-dihydropyrazolo[1,5-a]pyrimidine-6-carboxamide hydrochloride]	1.11
CC(C)(C)Cn1c(=O)c(C(=O)NC2CC2)c(O)n2nc(-c3[nH]ncc3C(=O)N3CCC(F)(F)C3)cc12 [Synthesis Example 316, N-Cyclopropyl-2-(4-(3,3-difluoropyrrolidine-1-carbonyl)-1H-pyrazol-5-yl)-7-hydroxy-4-neopentyl-5-oxo-4,5-dihydropyrazolo[1,5-a]pyrimidine-6-carboxamide hydrochloride]	0.9
CC(C)(C)Cn1c(=O)c(C(=O)NC2CC2)c(O)n2nc(-c3c[nH]nc3N)cc12 [Synthesis Example 317, 2-(3-Amino-1H-pyrazol-4-yl)-N-cyclopropyl-7-hydroxy-4-neopentyl-5-oxo-4,5-dihydropyrazolo[1,5-a]pyrimidine-6-carboxamide]	1.34
CC(C)Cn1c(=O)c(C(=O)NC2CC2)c(O)n2nc(O)cc12 [Synthesis Example 318, N-Cyclopropyl-2,7-dihydroxy-4-isobutyl-5-oxo-4,5-dihydropyrazolo[1,5-a]pyrimidine-6-carboxamide]	1.43
Cc1cc2n(CC(C)C)c(=O)c(C(=O)NC3CC3)c(O)n2n1 [Synthesis Example 319, N-Cyclopropyl-7-hydroxy-4-isobutyl-2-methyl-5-oxo-4,5-dihydropyrazolo[1,5-a]pyrimidine-6-carboxamide]	3.16
Cc1cc2n(CC(C)(C)C)c(=O)c(C(=O)NC3CC3)c(O)n2n1 [Synthesis Example 320, N-Cyclopropyl-7-hydroxy-2-methyl-4-neopentyl-5-oxo-4,5-dihydropyrazolo[1,5-a]pyrimidine-6-carboxamide]	1.69
COC(C)(C)Cn1c(=O)c(C(=O)NC2CC2)c(O)n2nc(Nc3cnccn3)cc12 [Synthesis Example 321, N-Cyclopropyl-7-hydroxy-4-(2-methoxy-2-methylpropyl)-5-oxo-2-(pyrazin-2-ylamino)-4,5-dihydropyrazolo[1,5-a]pyrimidine-6-carboxamide]	0.72
CC(C)(C)Cn1c(=O)c(C(=O)NC2CC2)c(O)n2nc(Nc3cnc(F)cn3)cc12 [Synthesis Example 322, N-Cyclopropyl-2-((5-fluoropyrazin-2-yl)amino)-7-hydroxy-4-neopentyl-5-oxo-4,5-dihydropyrazolo[1,5-a]pyrimidine-6-carboxamide]	0.98
CC(C)(C)Cn1c(=O)c(C(=O)NC2CC2)c(O)n2nc(Nc3cnc(C#N)cn3)cc12 [Synthesis Example 323, 2-((5-Cyanopyrazin-2-yl)amino)-N-cyclopropyl-7-hydroxy-4-neopentyl-5-oxo-4,5-dihydropyrazolo[1,5-a]pyrimidine-6-carboxamide]	1.2
CC(C)(C)Cn1c(=O)c(C(=O)NC2CC2)c(O)n2nc(Nc3cncc(C#N)n3)cc12 [Synthesis Example 324, 2-((6-Cyanopyrazin-2-yl)amino)-N-cyclopropyl-7-hydroxy-4-neopentyl-5-oxo-4,5-dihydropyrazolo[1,5-a]pyrimidine-6-carboxamide]	1.61
CC(C)(C)Cn1c(=O)c(C(=O)NC2CC2)c(O)n2nc(Nc3ccnc(C#N)n3)cc12 [Synthesis Example 325, 2-((2-Cyanopyrimidin-4-yl)amino)-N-cyclopropyl-7-hydroxy-4-neopentyl-5-oxo-4,5-dihydropyrazolo[1,5-a]pyrimidine-6-carboxamide]	1.45
C[C@H](Nc1cc2n(CC(C)(C)C)c(=O)c(C(=O)NC3CC3)c(O)n2n1)c1ccccn1 [Synthesis Example 326, (S)-N-Cyclopropyl-7-hydroxy-4-neopentyl-5-oxo-2-((1-(pyridin-2-yl)ethyl)amino)-4,5-dihydropyrazolo[1,5-a]pyrimidine-6-carboxamide]	1.96
